Experiments:
hippocampal neurons = assay: In vitro neural repair assay, injured hippocampal neurons (gap closure rate); assay type: cell-based; details: E18 rat hippocampal neurons, 72 hours
Method: The experimental procedure is as depicted in FIG. 1. Removed the brain of E18 rat embryos and dissected into cortex and hippocampus. Subsequently, the cortex and hippocampus were separated into cortical neurons and hippocampal neurons, respectively. Then, seeded hippocampal neurons on 48-well plates. The first day that neurons are cultured in vitro is defined as day in vitro 0 (DIV0). On DIV2, Cytosine beta-D-arabinoside (AraC) was added to neurons to inhibit the proliferation of glial cells. On DIV8, neurons were injured using pipette tips (p10 tips) and various concentrations of Isorhoifolin was added. After 72 hours, immunostaining was performed. TUJ1 antibody was used to label neuronal cells to observe the regrowth of neurites. Images were taken using Observer Z1 microscope. As depicted in FIG. 2, the degree of neuronal axon regeneration was quantified using the gap closure rate. White dashed lines indicate the borders of injury gap, the central black area represents the region scratched by the tip of a pipette tips. The newly regenerated neurites grow from the white dashed lines toward the center of the gap. To quantify the results, we measured the lengths of gap (Lg) and distance between regenerated neurites (Ln) every 50 μm. […] Gap closure rate is calculated using the formula: (Lg−Ln)/Lg. […]

injured brain sections = assay: Ex vivo 3D brain tissue slice culture, scalpel injury; assay type: cell-based; details: E18 rat brain slices 350 μm, added every day, 96 hours, vs ddH2O
From the text: For the experiment, we took out the brain of E18 rat embryos and embedded in low-melting agarose. The brains were sectioned using Leica microtome VT100. The tissue sections were collected with 350 μm thick and injured using a scalpel. And placed them in inserts within a 6-well plate. This culturing method allows the brain slices to be exposed to both medium and air, facilitating a more realistic representation of the interactions between neuronal cells and other brain cells, as well as the three-dimensional structure, compared to in vitro culture. ddH2O or Isorhoifolin was added to injured brain sections every day. After 96 hours, immunostaining was performed. TUJ1 antibody was used to label neuron cells. GFAP antibody was used to label glial cells. DAPI was used to label nucleus. The experimental procedure for the Isorhoifolin derivative Narirutin is also depicted in FIG. 6. Took out the brain of E18 rat embryos and embedded in low-melting agarose. The brains were sectioned using Leica microtome VT100. The tissue sections were collected with 350 μm thick and injured using a scalpel. And placed them in inserts within a 6-well plate. […]

Neuro2a cells = assay: CellTiter-Glo cell viability assay (cytotoxicity); assay type: cell-based
From the text: Utilizing the CellTiter-Glo cell viability assay to assess the toxicity of Isorhoifolin on Neuro2a cells. CellTiter-Glo cell viability assay can detect the level of ATP in neuro2a cells after treatment of compounds to evaluate the survival rate.

[1] = tested on: motor coordination after brain injury; assay: Controlled cortical impact (CCI) brain injury model, horizontal bar test; assay type: in vivo; details: mice, 14 or 140 μg/kg intranasal at 0, 2, 4, 6, 8, 10, 12 Dpi, tested 1, 3, 6, 10, 13 Dpi, vs ddH2O and Sham
Method: Using the horizontal bar test, mice were placed on brass rods positioned at a height of 49 cm above the ground, with lengths of 38 cm and diameters of 2 mm, 4 mm, and 6 mm. Mice were required to grasp the brass rod with their forepaws, and their ability to move and coordinate was assessed by measuring the time spent on the brass rod and whether they reached the platform at the end of the rod. Evaluation criteria were as follows: 1 point for 1-5 seconds, 2 points for 5-10 seconds, 3 points for 10-20 seconds, 4 points for 20-30 seconds, and 5 points for over 30 seconds or reaching the platform. The experimental model, as depicted in FIG. 10, involved pre-training at −5, −3, and −1 days post injury (Dpi) (5, 3, and 1 day(s) before brain injury). At 0 Dpi, the controlled cortical impact model (CCI model) was used to induce brain injury in mice. Subsequently, at 0, 2, 4, 6, 8, 10, and 12 Dpi, mice were administered Isorhoifolin at doses of 14 or 140 μg/kg via intranasal delivery. Horizontal bar experiments were conducted at 1, 3, 6, 10, and 13 Dpi.

retinal explants = assay: Ex vivo retinal explant neuronal tissue repair; assay type: cell-based, C57BL/6 mice; details: P8 mouse retinal explants, 9 μM or 90 μM, five days, vs ddH2O
Method: Retinal explants were obtained from C57BL/6 mice at postnatal day 8. Following the sacrifice of mice, the eyes were enucleated, and the eyeballs were dissected using forceps and microscissors to separate the retina and remove the vitreous. Subsequently, the dissected retinas were quartered and trimmed along the edges of the tissue using microscissors. Each quarter was cultured on an 18 mm round coverslip and placed in a 12-well plate inside a CO2 incubator at 35° C. for five days. The culture medium was replaced daily with fresh medium containing either 9 μM or 90 μM Isorhoifolin. On the fifth day of culture, the retinal tissues were fixed with a mixture of 0.1% glutaraldehyde solution and 4% paraformaldehyde at room temperature for one hour. Immunostaining was performed using primary antibodies against the axonal marker beta-III-tubulin (TUJ1) and DAPI to label neurons and cell nuclei, respectively. Images were acquired using a super-resolution upright confocal microscope (LSM-800, Carl Zeiss). ImageJ software was utilized for image analysis, wherein the tissue boundary was delineated to calculate the perimeter and the area of neuronal fibers outside the tissue boundary. The ratio of neuronal fiber area to tissue boundary perimeter was then calculated to determine the unit perimeter neuronal fiber length.

cortical neurons = assay: In vitro neural repair assay, injured cortical neurons (gap closure rate); assay type: cell-based; details: E18 rat cortical neurons, injured DIV8, 10 nM and 100 nM, 72 hours, standardized against 0.1% DMSO
From the text: As depicted in FIG. 2, the degree of neuronal axon regeneration was quantified using the gap closure rate. White dashed lines indicate the borders of injury gap, the central black area represents the region scratched by the tip of a pipette tips. The newly regenerated neurites grow from the white dashed lines toward the center of the gap. To quantify the results, we measured the lengths of gap (Lg) and distance between regenerated neurites (Ln) every 50 μm. After unbiasedly drawing ten lines of equal distance, the average distance between neurites is taken: Length of gap between regenerated neurons (Ln). Gap closure rate is calculated using the formula: (Lg−Ln)/Lg. Scale bar=100 μm. Images were taken using Observer Z1 microscope. The experimental procedure is also as depicted in FIG. 1. Removed the brain of E18 rat embryos and dissected into cortex and hippocampus. Subsequently, the cortex and hippocampus were separated into cortical neurons and hippocampal neurons, respectively. Then, seeded cortical neurons on 48-well plates. The first day that neurons are cultured in vitro is defined as day in vitro 0 (DIV0). On DIV2, Cytosine beta-D-arabinoside (AraC) was added to neurons to inhibit the proliferation of glial cells. On DIV8, neurons were injured using pipette tips (p10 tips) and 10 nM and 100 nM Narirutin was added. […]

| Compound | neurite regrowth after injury (gap closure rate) (hippocampal neurons; injured DIV8, various concentrations, TUJ1 staining) | neurite outgrowth after injury in ex vivo 3D brain slice culture (injured brain sections) | toxicity towards Neuro2a cells (Neuro2a cells) | IC50 (Neuro2a cells; Mus musculus, N2a, CellTiter-Glo, read-out: IC50 (cell viability, ATP level)) [mM] | motor coordination recovery (horizontal bar test score) [1] | recovery of injured retinal neurons (unit perimeter neuronal fiber length) (retinal explants) | neurite regeneration after injury (gap closure rate) (hippocampal neurons; injured DIV8, 1 nM and 10 nM, standardized against 0.1% DMSO) | neurite regeneration after injury (gap closure rate) (cortical neurons) |
| --- | --- | --- | --- | --- | --- | --- | --- | --- |
| C[C@@H]1O[C@@H](OC[C@H]2O[C@@H](Oc3cc(O)c4c(=O)cc(-c5ccc(O)cc5)oc4c3)[C@H](O)[C@@H](O)[C@@H]2O)[C@H](O)[C@H](O)[C@H]1O [Isorhoifolin] | promotes neurite regrowth after injury in hippocampal neurons | promotes neurite outgrowth after injury in ex vivo 3D brain slice culture | low toxicity | ~11.6 | motor coordination was similar to that of the Sham (surgery control) group | significant recovery of injured retinal neurons |  |  |
| Narirutin |  | promotes neurite outgrowth after injury in ex vivo 3D brain slice culture |  |  |  |  | effectively promotes dendritic outgrowth in hippocampal neurons | effectively promotes dendritic outgrowth in cortical neurons |

— US20240415859A1, “USE OF ISORHOIFOLIN AND DERIVATIVE THEREOF IN PROMOTING NERVE REPAIR” (priority 2021, published 2024)
